In US8828993B2, “Psychotropic agents having glutamate NMDA activity” (Ramot At Tel-Aviv University Ltd., priority 2006, dated 2014):
Where a name gives a salt, the structure may show the parent alone.

Test system: human glioma U83 cell
Details: 24 h
Procedure: Determination of cell viability was performed in cells (10,000/well) using neutral red method. Absorption of neutral red by lysosomes caused coloring of living cells. Quantitative analysis was performed by colorimetric assay (ELISA reader at 550 nm).

Structure (SMILES): COC(=O)C(N)CN1CCN(C2=Nc3ccccc3Nc3sc(C)cc32)CC1 (stereo not shown) [Compound 1, 2-amino-3-[4-(2-methyl-10H-thieno[2,3-b][1,5]benzodiazepin-4-yl)-piperazin-1-yl]-propionic acid, methyl ester hydrochloride salt]
- concentration toxic to human glioma cells (not toxic up to): > 100 µM
